Test results from US20230048349A1, “RECIRCULATING AQUACULTURE SYSTEM AND METHODS THEREOF” (THE TEXAS A&M UNIVERSITY SYSTEM, priority 2021, published 2023).
Converted amounts (≈) assume the structure as drawn. Like-named read-outs stand apart in the source and are kept apart here. Marks after values point to notes of the source that are not given here.

What was measured:
[1] = test system: Vibrio-challenged Artemia; assay: Artemia pathogen challenge test (Example 17); format: in vivo, Artemia franciscana; settings: after three days; supplement 1 g/L; V. campbellii 10^8 cells/ml
Method: The pathogen challenge tests were designed to determine the effects of individual supplements on the survival of Vibrio-challenged Artemia. The pathogen challenge tests were conducted as described in the starvation tests, except that Artemia cultures (one day old) with each of the abovementioned supplements (1 g/L) were exposed to a lethal dose (10^8 cells/ml) of live V. campbellii as determined previously. In all treatments, 250 mg/L of yeast was added initially as a feed. Unchallenged and Vibrio-challenged Artemia were used as negative and positive controls, respectively. The survival of Artemia was monitored daily for three days.

[2] = test system: V. campbellii and A. hydrophila; assay: Growth inhibition test of SCFAs and MCFAs, ranges over two G− pathogens (Example 15); format: cell-based, Vibrio campbellii; Aeromonas hydrophila; settings: range over V. campbellii and A. hydrophila; for MIC: LB pH 6, 5-125 mM tested; for IC50: LB pH 6
Method: (§1) Growth Inhibition Tests: Antipathogenic Properties of SCFAs and MCFAs. Growth inhibition tests to measure optical density (OD600) and calculate % inhibition efficiencies, minimum, and median inhibitory concentrations (MIC and IC50) were conducted as described previously. […] The PHA intermediates (SCFAs and MCFAs) are water-soluble, representing the PHA degradation products in the gastrointestinal tract of aquatic animals, allowing to assess the antipathogenic efficacy of PHA under the best scenario. The culture tubes were incubated at 30° C. under 150 rpm. The growths of tested strains in the absence of PHA intermediates were used as controls.

S. agalactiae = assay: Growth inhibition test of SCFAs and MCFAs (Example 15); format: cell-based, Streptococcus agalactiae; settings: for IC50: S. agalactiae
Method: as §1

Bacillus megaterium = assay: Growth inhibition test in liquid medium (OD600); format: cell-based; settings: B. megaterium; for IC50: 4-parameter logistic fit; for MIC: pH 6.0, 30° C.
Method: (§2) These compounds were used to assess the antimicrobial efficacy of PHB and chitosan under the best scenario. Various concentrations of PHB intermediates (5-125 mM), COS (0.2-3 mM), or mixtures of 3-HB+COS (i.e., Mixture 1 (4 mM 3-HB+0.1 mM COS), Mixture 2 (12 mM 3-HB+0.3 mM COS), Mixture 3 (24 mM 3-HB+0.6 mM COS), and Mixture 4 (60 mM 3-HB+1.5 mM COS)) were used based on previously in vitro antimicrobial studies using PHB or chitosan. For S. agalactiae and RHA1, tryptic soy broth (TSB) and Reasoner's 2A (R2A) media were used, respectively. The pH of all growth mediums (i.e., LB, TSB, or R2A) was adjusted to 6.0 based on the typical pH value found in aquatic animals' gut and the optimized antimicrobial activity of PHB. The culture tubes were inoculated with 2% v/v of the pre-grown strains (optical density (OD600) of 1.0) and incubated at 30° C. under 150 rpm. The bacterial growth was determined by absorbance at OD600. The growth of tested strains in the absence of PHB or chitosan intermediates were used as controls. The inhibition efficiency (%) was calculated using Eq. (1): […]
(§3) where ODcontrol and ODsample refer to the highest optical densities of the growth curves for the controls and samples, respectively.

Rhodococcus jostii RHA1 = assay: Growth inhibition test in liquid medium (OD600); format: cell-based; settings: R. jostii RHA1; for IC50: 4-parameter logistic fit; for MIC: pH 6.0, 30° C.
Method: as §2, §3

Aeromonas hydrophila = assay: Growth inhibition test in liquid medium (OD600); format: cell-based; settings: A. hydrophila; for IC50: 4-parameter logistic fit
Method: as §2, §3

Vibrio campbellii = assay: Growth inhibition test in liquid medium (OD600); format: cell-based
Method: as §2, §3

Escherichia coli = assay: Growth inhibition test in liquid medium (OD600); format: cell-based; settings: E. coli; for MIC: pH 6.0, 30° C.
Method: as §2, §3

Streptococcus agalactiae = assay: Growth inhibition test in liquid medium (OD600); format: cell-based; settings: S. agalactide; for MIC: pH 6.0, 30° C.
Method: as §2, §3

[3] = test system: V. campbellii and A. hydrophila; assay: Growth inhibition test, ranges stated over two G− pathogens (Example 8); format: cell-based, Vibrio campbellii; Aeromonas hydrophila; settings: range over V. campbellii and A. hydrophila
Method: as §2, §3

[4] = Vibrio campbellii, read-out: Inhibition Efficiency (%)

## CCCCCCCC(=O)O [octanoate]
[1]
  survival of Vibrio-challenged Artemia: 80%
[2]
  MIC: < 5 mM
S. agalactiae; stated for all pathogenic growth, incl. S. agalactiae
  MIC: < 5 mM

## CCCC(=O)O [Butyrate, butyrate]
Bacillus megaterium; Priestia megaterium, 5 mM, read-out: Inhibition Efficiency (%)
  inhibition at 5000 µM: -5.8 ± 1.74%
Bacillus megaterium; Priestia megaterium, 25 mM, read-out: Inhibition Efficiency (%)
  inhibition at 25000 µM: 15.5 ± 1.56%
Bacillus megaterium; Priestia megaterium, 50 mM, read-out: Inhibition Efficiency (%)
  inhibition at 50000 µM: 100%
Bacillus megaterium; Priestia megaterium, 125 mM, read-out: Inhibition Efficiency (%)
  inhibition at 125000 µM: 100%
Bacillus megaterium; Priestia megaterium, read-out: IC50
  IC50: 26.2 mM
Bacillus megaterium; Priestia megaterium, read-out: MIC
  MIC: 53 mM (≈ 4670 µg/mL)
Rhodococcus jostii RHA1
  IC50: N.I.
  MIC: N.I.
Rhodococcus jostii RHA1; Rhodococcus jostii, 5 mM, read-out: Inhibition Efficiency (%)
  inhibition at 5000 µM: -25.2 ± 4.93%
Rhodococcus jostii RHA1; Rhodococcus jostii, 25 mM, read-out: Inhibition Efficiency (%)
  inhibition at 25000 µM: -70.8 ± 2.65%
Rhodococcus jostii RHA1; Rhodococcus jostii, 50 mM, read-out: Inhibition Efficiency (%)
  inhibition at 50000 µM: -92.2 ± 21.6%
Rhodococcus jostii RHA1; Rhodococcus jostii, 125 mM, read-out: Inhibition Efficiency (%)
  inhibition at 125000 µM: 100%
Aeromonas hydrophila; Aeromonas hydrophila, 5 mM, read-out: Inhibition Efficiency (%)
  inhibition at 5000 µM: 0.8 ± 0.22%
Aeromonas hydrophila; Aeromonas hydrophila, 25 mM, read-out: Inhibition Efficiency (%)
  inhibition at 25000 µM: 12.7 ± 1.8%
Aeromonas hydrophila; Aeromonas hydrophila, 50 mM, read-out: Inhibition Efficiency (%)
  inhibition at 50000 µM: 72.4 ± 5.4%
Aeromonas hydrophila; Aeromonas hydrophila, 125 mM, read-out: Inhibition Efficiency (%)
  inhibition at 125000 µM: 100%
Aeromonas hydrophila; Aeromonas hydrophila
  IC50: 39.7 mM
Vibrio campbellii; Vibrio campbellii
  IC50: 3.82 mM
Vibrio campbellii; Vibrio campbellii, pH 6
  MIC: 25.7 mM (≈ 2260 µg/mL)
Vibrio campbellii; [4]
  inhibition at 5000 µM: 9.14 ± 8.9%
  inhibition at 25000 µM: 100%
  inhibition at 50000 µM: 100%
  inhibition at 125000 µM: 100%
Escherichia coli; Escherichia coli, 5 mM, read-out: Inhibition Efficiency (%)
  inhibition at 5000 µM: 5 ± 0.89%
Escherichia coli; Escherichia coli, 25 mM, read-out: Inhibition Efficiency (%)
  inhibition at 25000 µM: 10.7 ± 12%
Escherichia coli; Escherichia coli, 50 mM, read-out: Inhibition Efficiency (%)
  inhibition at 50000 µM: 23 ± 6.24%
Escherichia coli; Escherichia coli, 125 mM, read-out: Inhibition Efficiency (%)
  inhibition at 125000 µM: 71.1 ± 8.25%
Escherichia coli; Escherichia coli, 4-parameter logistic fit
  IC50: 61.2 mM
Streptococcus agalactiae; Streptococcus agalactiae, 5 mM, read-out: Inhibition Efficiency (%)
  inhibition at 5000 µM: 0.75 ± 0.01%
Streptococcus agalactiae; Streptococcus agalactiae, 25 mM, read-out: Inhibition Efficiency (%)
  inhibition at 25000 µM: 0.43 ± 0.15%
Streptococcus agalactiae; Streptococcus agalactiae, 50 mM, read-out: Inhibition Efficiency (%)
  inhibition at 50000 µM: 10.2 ± 1.83%
Streptococcus agalactiae; Streptococcus agalactiae, 125 mM, read-out: Inhibition Efficiency (%)
  inhibition at 125000 µM: 100%
Streptococcus agalactiae; Streptococcus agalactiae, 4-parameter logistic fit
  IC50: 83.4 mM
[1]
  survival of Vibrio-challenged Artemia: 10%
[3]
  IC50: 5.8 to 39.7 mM
[2]
  IC50: 8.97 to 30.9 mM
S. agalactiae; Streptococcus agalactiae
  IC50: 57.5 mM

## CC(O)CC(=O)O (stereo not drawn) [3-HB, 3-hydroxybutyrate]
Bacillus megaterium; 5 mM
  Inhibition Efficiency (%): 6.52 ± 3.48%
Bacillus megaterium; 25 mM
  Inhibition Efficiency (%): −1.35 ± 1.04%
Bacillus megaterium; 50 mM
  Inhibition Efficiency (%): 12.9 ± 0.94%
Bacillus megaterium; 125 mM
  Inhibition Efficiency (%): 17.0 ± 14.4%
Bacillus megaterium
  IC50: N.I.
  MIC: N.I.
Rhodococcus jostii RHA1; 5 mM
  Inhibition Efficiency (%): −32.3 ± 2.20%
Rhodococcus jostii RHA1; 25 mM
  Inhibition Efficiency (%): −87.3 ± 4.00%
Rhodococcus jostii RHA1; 50 mM
  Inhibition Efficiency (%): −61.7 ± 0.58%
Rhodococcus jostii RHA1; 125 mM
  Inhibition Efficiency (%): 100%
Rhodococcus jostii RHA1
  IC50: N.I.
  MIC: N.I.
Aeromonas hydrophila; 5 mM
  Inhibition Efficiency (%): 2.7 ± 1.26%
Aeromonas hydrophila; 25 mM
  Inhibition Efficiency (%): 24.1 ± 2.70%
Aeromonas hydrophila; 50 mM
  Inhibition Efficiency (%): 31.1 ± 3.59%
Aeromonas hydrophila; 125 mM
  Inhibition Efficiency (%): 100%
Aeromonas hydrophila
  IC50: 57.7 mM
Aeromonas hydrophila; pH 6.0, 30° C.
  MIC: 133 mM (≈ 13800 µg/mL)
Vibrio campbellii; 5 mM, V. campellii
  Inhibition Efficiency (%): 1.27 ± 1.07%
Vibrio campbellii; 25 mM, V. campellii
  Inhibition Efficiency (%): 14.0 ± 1.78%
Vibrio campbellii; 50 mM, V. campellii
  Inhibition Efficiency (%): 42.4 ± 5.88%
Vibrio campbellii; 125 mM, V. campellii
  Inhibition Efficiency (%): 100%
Vibrio campbellii; V. campellii, 4-parameter logistic fit, read-out: IC50
  IC50: 53 mM
Vibrio campbellii; V. campellii, pH 6.0, 30° C.
  MIC: 111.5 mM (≈ 11600 µg/mL)
Escherichia coli; 5 mM
  Inhibition Efficiency (%): 2.68 ± 0.67%
Escherichia coli; 25 mM
  Inhibition Efficiency (%): 9.15 ± 3.12%
Escherichia coli; 50 mM
  Inhibition Efficiency (%): 24.5 ± 2.23%
Escherichia coli; 125 mM
  Inhibition Efficiency (%): 26.5 ± 1.34%
Escherichia coli
  MIC: 510 mM (≈ 53100 µg/mL)
Streptococcus agalactiae; 5 mM
  Inhibition Efficiency (%): 0.75 ± 0.01%
Streptococcus agalactiae; 25 mM
  Inhibition Efficiency (%): 0.75 ± 0.03%
Streptococcus agalactiae; 50 mM
  Inhibition Efficiency (%): 0.75 ± 0.01%
Streptococcus agalactiae; 125 mM
  Inhibition Efficiency (%): 13.8 ± 0.15%
Streptococcus agalactiae
  MIC: 945 mM (≈ 98400 µg/mL)
[3]
  IC50: 53 to 58 mM
  MIC: 111.5 to 133 mM

## CCCCC(=O)O [valerate]
[1]
  survival of Vibrio-challenged Artemia: 10%
[2]
  IC50: 0.84 to 11.1 mM
  MIC: 62.4 to 77.9 mM
S. agalactiae
  IC50: 30.2 mM

## chitosan oligosaccharide lactate [COS]
Bacillus megaterium; 0.2 mM
  Inhibition Efficiency (%): 100%
Bacillus megaterium; 0.6 mM
  Inhibition Efficiency (%): 100%
Bacillus megaterium; 1.2 mM
  Inhibition Efficiency (%): 100%
Bacillus megaterium; 3 mM
  Inhibition Efficiency (%): 100%
Bacillus megaterium
  MIC: <0.2^c mM
Rhodococcus jostii RHA1; 0.2 mM
  Inhibition Efficiency (%): 100%
Rhodococcus jostii RHA1; 0.6 mM
  Inhibition Efficiency (%): 100%
Rhodococcus jostii RHA1; 1.2 mM
  Inhibition Efficiency (%): 100%
Rhodococcus jostii RHA1; 3 mM
  Inhibition Efficiency (%): 100%
Rhodococcus jostii RHA1
  MIC: <0.2 mM
Aeromonas hydrophila; 0.2 mM
  Inhibition Efficiency (%): 4.81 ± 0.11%
Aeromonas hydrophila; 0.6 mM
  Inhibition Efficiency (%): −7.30 ± 0.40%
Aeromonas hydrophila; 1.2 mM
  Inhibition Efficiency (%): 77.6 ± 0.28%
Aeromonas hydrophila; 3 mM
  Inhibition Efficiency (%): 74.2 ± 0.61%
Vibrio campbellii; 0.2 mM, V. campellii
  Inhibition Efficiency (%): 76.5 ± 1.13%
Vibrio campbellii; 0.6 mM, V. campellii
  Inhibition Efficiency (%): 93.0 ± 1.10%
Vibrio campbellii; 1.2 mM, V. campellii
  Inhibition Efficiency (%): 95.0 ± 0.23%
Vibrio campbellii; 3 mM, V. campellii
  Inhibition Efficiency (%): 100%
Vibrio campbellii; V. campellii, pH 6.0, 30° C.
  MIC: 2.36 mM
Escherichia coli; 0.2 mM
  Inhibition Efficiency (%): 60.6 ± 4.56%
Escherichia coli; 0.6 mM
  Inhibition Efficiency (%): 90.6 ± 0.91%
Escherichia coli; 1.2 mM
  Inhibition Efficiency (%): 100%
Escherichia coli; 3 mM
  Inhibition Efficiency (%): 100%
Escherichia coli
  MIC: 1.88 mM
Streptococcus agalactiae; 0.6 mM
  Inhibition Efficiency (%): 95.4 ± 0.01%
Streptococcus agalactiae; 1.2 mM
  Inhibition Efficiency (%): 100%
Streptococcus agalactiae; 3 mM
  Inhibition Efficiency (%): 100%
Streptococcus agalactiae
  MIC: 1.08 mM
